Where two headings read alike, the source gives them in different places.

The series can be described thus: Metabolic stability and intrinsic clearance in human liver microsomes (MICS). It counts as in vitro ADME. As to conditions: pH 7.4. The method in brief:
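Test compound (1 μM final) incubated at 37° C with liver microsomes (0.5 mg/mL protein) in 100 mM phosphate buffer pH 7.4, with 1 mM NADPH or without cofactor; sampled at 0.5–60 min, quenched with cold acetonitrile. Parent remaining quantified by LC-MS/MS; t1/2 from ln-% remaining slope converted to CLint (μL/min/mg protein).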
On the technique in general: Liver microsomes are vesicles of endoplasmic reticulum, rich in cytochrome P450 enzymes.

Regarding `Cc1cc([C@@H](C)Oc2ccc(Cl)nc2-c2noc(=O)[nH]2)c2oc(-c3ccc4c(c3)OC(F)(F)O4)c(C)c(=O)c2c1` [Example 46A, 3-[6-Chloro-3-[(1R)-1-[2-(2,2-difluoro-1,3-benzodioxol-5-yl)-3,6-dimethyl-4-oxo-chromen-8-yl]ethoxy]-2-pyridyl]-4H-1,2,4-oxadiazol-5-one], the microsomal CLint at 1 μM (human, microsomes) is < 50 µL/min/mg. The same measure, in the same setting: to `CC(=O)Nc1ccc(-c2oc3c([C@@H](C)Oc4ccc(Cl)nc4C(N)=O)cc(C)cc3c(=O)c2C)cc1` [Example 58C, 3-[(1R)-1-[2-(4-Acetamidophenyl)-3,6-dimethyl-4-oxo-chromen-8-yl]ethoxy]-6-chloro-pyridine-2-carboxamide] belongs < 50 µL/min/mg; to `Cc1cc([C@@H](C)Oc2ccc(Cl)nc2C(N)=O)c2oc(-c3cc(F)c4nn(C)cc4c3)c(C)c(=O)c2c1` [Example 17B, 6-Chloro-3-[(1R)-1-[2-(7-fluoro-2-methyl-indazol-5-yl)-3,6-dimethyl-4-oxo-chromen-8-yl]ethoxy]pyridine-2-carboxamide], < 50 µL/min/mg.

Consider `Cc1cc([C@@H](C)Oc2ccc(Cl)nc2NS(C)(=O)=O)c2oc(-c3cnn(C)c3)c(C)c(=O)c2c1` [Example 149A, N-[6-Chloro-3-[(1R)-1-[3,6-dimethyl-2-(1-methylpyrazol-4-yl)-4-oxo-chromen-8-yl]ethoxy]-2-pyridyl]methanesulfonamide], for which the microsomal CLint at 1 μM (human liver microsomes 0.5 mg/mL, 1 μM compound, read-out: intrinsic clearance in human MICS) was < 50 µL/min/mg. In the case of `Cc1cc([C@@H](C)Oc2ccc(Br)nc2C(N)=O)c2oc(-c3ccc4nn(C)cc4c3)c(C)c(=O)c2c1` [Example 81C, 6-Bromo-3-[(1R)-1-[3,6-dimethyl-2-(2-methylindazol-5-yl)-4-oxo-chromen-8-yl]ethoxy]pyridine-2-carboxamide], the microsomal CLint at 1 μM (human, microsomes) was < 50 µL/min/mg.
